Reference: paper PMC2742306 (Molecular cell, 2009)
Residues, ends and D or L forms follow the SMILES beside them.

Columns and labels:
Type in all cases: biochemical, E. coli
[1] = biological target: T1, wild-type DegS (Escherichia coli, UniProt P0AEE3); assay: OMP-peptide activation of RseA cleavage by wild-type DegS
[2] = biological target: T2, D320A DegS (Escherichia coli, UniProt P0AEE3, D320A)
[3] = biological target: T3, K243D mutant of DegS (Escherichia coli, UniProt P0AEE3, K243D)
[4] = biological target: T2, D320A DegS; assay: Global fit to MWC allosteric model, D320A DegS
[5] = biological target: T2, D320A DegS; assay: OMP-peptide activation of RseA cleavage by D320A DegS
[6] = biological target: T4, K243D/M319A double mutant of DegS (Escherichia coli, UniProt P0AEE3, K243D/M319A); assay: OMP-peptide activation of RseA cleavage by K243D/M319A DegS
T4 sequence (P0AEE3 27-355 K243D/M319A): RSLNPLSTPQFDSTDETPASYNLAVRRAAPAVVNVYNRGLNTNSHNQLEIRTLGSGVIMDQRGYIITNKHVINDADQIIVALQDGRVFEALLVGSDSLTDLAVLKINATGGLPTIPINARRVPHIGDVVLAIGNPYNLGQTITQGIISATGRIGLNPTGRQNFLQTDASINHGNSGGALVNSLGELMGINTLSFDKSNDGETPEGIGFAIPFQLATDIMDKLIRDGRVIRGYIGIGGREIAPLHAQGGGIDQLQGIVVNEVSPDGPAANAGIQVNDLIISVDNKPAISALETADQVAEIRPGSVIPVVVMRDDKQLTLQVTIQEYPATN

[7] = biological target: T3, K243D mutant of DegS; assay: Global fit to MWC allosteric model, K243D DegS
[8] = biological target: T5, M319A DegS (Escherichia coli, UniProt P0AEE3, M319A); assay: Global fit to MWC allosteric model, M319A DegS
T5 sequence (P0AEE3 27-355 M319A): as the sequence (P0AEE3 27-355 K243D/M319A) above, with D217K counted along it

[9] = biological target: T1, wild-type DegS; conditions: wild-type DegS 0.9 μM trimer; 20 μM rhodamine-FP; saturating peptide
[10] = biological target: T3, K243D mutant of DegS; assay: OMP-peptide activation of RseA cleavage by K243D DegS
[11] = biological target: T4, K243D/M319A double mutant of DegS; assay: Global fit to MWC allosteric model, K243D/M319A DegS
[12] = biological target: T5, M319A DegS; assay: OMP-peptide activation of RseA cleavage by M319A DegS
[13] = biological target: T4, K243D/M319A double mutant of DegS; conditions: saturating peptide
[14] = biological target: T1, wild-type DegS; conditions: wild-type DegS 0.5 μM trimer, YYF 300 μM
[15] = biological target: T1, wild-type DegS
[16] = D320A, MWC global fit, RseA, not peptide, binding
[17] = K243D, MWC global fit, RseA, not peptide, binding
[18] = M319A, MWC global fit, RseA, not peptide, binding

T3 sequence (P0AEE3 27-355 K243D): as the sequence (P0AEE3 27-355 K243D/M319A) above, with A293M counted along it
T1 sequence (P0AEE3 27-355): as the sequence (P0AEE3 27-355 K243D/M319A) above, with D217K, A293M counted along it
T2 sequence (P0AEE3 27-355 D320A): as the sequence (P0AEE3 27-355 K243D/M319A) above, with D217K, A293M, D294A counted along it

N[C@@H](Cc1ccc(O)cc1)C(=O)N[C@@H](Cc1ccc(O)cc1)C(=O)N[C@@H](Cc1ccccc1)C(=O)O [YYF] (H-Tyr-Tyr-Phe-OH)
EC50 [1]: 29 ± 3 µM
displacement in concentration between YYF and YQF activation curves ([1]; wild-type DegS): ~10 fold
Hill Constant (peptide activation) ([1]; wild-type DegS, 200 μM RseA): 1.7 ± 0.1
Vmax (RseA cleavage) ([2]; D320A 0.3 μM trimer, saturating peptide (DNRDGNVYYF 30 μM), 23 °C, pH 8.3): 3.1 ± 0.3 s^−1enz^−1
Vmax relative to wild-type DegS ([2]; D320A, saturating YYF): roughly within error for wild-type and the mutants
Hill Constant (RseA substrate) ([2]; D320A, saturating peptide): 1.2 ± 0.1
Vmax (RseA cleavage) ([3]; K243D 0.3 μM trimer, saturating peptide (DNRDGNVYYF 30 μM), 23 °C, pH 8.3): 2.3 ± 0.1 s^−1enz^−1
Vmax relative to wild-type DegS ([3]; K243D, saturating YYF): roughly within error for wild-type and the mutants
Hill Constant (RseA substrate) ([3]; K243D, saturating peptide): 1.3 ± 0.1
reduction of (KTP/KRP)^3 relative to wild-type ([4]; D320A (range given for K243D and D320A together), MWC model): 30–70 fold
KRS, dissociation constant of RseA substrate for R-state subunit [4, 16]: 150 µM
KTS, dissociation constant of RseA substrate for T-state subunit [4, 16]: 505 µM
L0, equilibrium constant T/R of unliganded enzyme ([4]; D320A, MWC global fit, enzyme parameter, peptide-independent): 350
KTP/KRP ([4]; D320A, MWC global fit, peptide preference for relaxed state): 4.1
kr, rate constant for cleavage of RseA by substrate-bound R-state subunits ([4]; D320A, MWC global fit, same value for all enzymes and peptides): 3.3 s⁻¹
enzymes in active conformation ([4]; D320A, saturating peptide and RseA, MWC model): about 85%
EC50 [5]: 4.8 ± 1.2 µM
Hill Constant (peptide activation) ([5]; D320A, 200 μM RseA): 1.4 ± 0.1
activation relative to wild-type DegS ([5]; D320A, single substrate concentration): only marginally better than wild-type DegS
EC50 [6]: 0.7 ± 0.2 µM
Hill Constant (peptide activation) ([6]; K243D/M319A, 200 μM RseA): 1.2 ± 0.1
Maximum Activity (RseA cleavage) ([6]; K243D/M319A, 200 μM RseA, 23 °C, pH 8.3, average of two or more determinations): 2700 ± 400 M⁻¹ s⁻¹
reduction of (KTP/KRP)^3 relative to wild-type ([7]; K243D (range given for K243D and D320A together), MWC model): 30–70 fold
KRS, dissociation constant of RseA substrate for R-state subunit [7, 17]: 150 µM
KTS, dissociation constant of RseA substrate for T-state subunit [7, 17]: 505 µM
L0, equilibrium constant T/R of unliganded enzyme ([7]; K243D, MWC global fit, enzyme parameter, peptide-independent): 180
KTP/KRP ([7]; K243D, MWC global fit, peptide preference for relaxed state): 3.0
kr, rate constant for cleavage of RseA by substrate-bound R-state subunits ([7]; K243D, MWC global fit, same value for all enzymes and peptides): 3.3 s⁻¹
enzymes in active conformation ([7]; K243D, saturating peptide and RseA, MWC model): about 85%
KRS, dissociation constant of RseA substrate for R-state subunit [8, 18]: 150 µM
KTS, dissociation constant of RseA substrate for T-state subunit [8, 18]: 505 µM
L0, equilibrium constant T/R of unliganded enzyme ([8]; M319A, MWC global fit, enzyme parameter, peptide-independent): 5500
KTP/KRP ([8]; M319A, MWC global fit, peptide preference for relaxed state): 2.7
kr, rate constant for cleavage of RseA by substrate-bound R-state subunits ([8]; M319A, MWC global fit, same value for all enzymes and peptides): 3.3 s⁻¹
reduction of (KTP/KRP)^3 relative to wild-type ([8]; M319A, MWC model): ~100 fold
enzymes in active conformation ([8]; M319A, saturating peptide and substrate, MWC model): about 10%
tighter binding to tense M319A than to tense wild-type DegS ([8]; MWC modeling): about 20 fold
rate of rhodamine-FP modification in presence of peptide (order) [9]: fastest
EC50 [10]: 6.4 ± 1.6 µM
Hill Constant (peptide activation) ([10]; K243D, 200 μM RseA): 1.4 ± 0.2
activation relative to wild-type DegS ([10]; K243D, single substrate concentration): only marginally better than wild-type DegS
KRS, dissociation constant of RseA substrate for R-state subunit ([11]; RseA, not peptide, binding): 150 µM
KTS, dissociation constant of RseA substrate for T-state subunit ([11]; RseA, not peptide, binding): 505 µM
L0, equilibrium constant T/R of unliganded enzyme ([11]; enzyme parameter, peptide-independent): 90
KTP/KRP ([11]; peptide preference for relaxed state): 2.1
kr, rate constant for cleavage of RseA by substrate-bound R-state subunits ([11]; same value for all enzymes and peptides): 3.3 s⁻¹
EC50 [12]: 3.2 ± 0.4 µM
Hill Constant (peptide activation) ([12]; M319A, 200 μM RseA): 1.1 ± 0.1
Maximum Activity (RseA cleavage) ([12]; M319A, 200 μM RseA, 23 °C, pH 8.3, average of two or more determinations): 120 ± 20 M⁻¹ s⁻¹
decrease of half-maximal activation concentration relative to wild-type DegS ([12]; M319A, lower than wild-type): 10 fold
decrease of peptide-activated activity relative to wild-type DegS ([12]; M319A, saturating YYF, lower than wild-type value): 20 fold
Hill Constant (RseA substrate) [13]: 1.2 ± 0.1
Vmax (RseA cleavage) ([13]; 23 °C, pH 8.3): 2.1 ± 0.2 s^−1enz^−1
Hill Constant (RseA substrate) [14]: 1.4 ± 0.2
Vmax (RseA cleavage) ([14]; 23 °C, pH 8.3): 2.6 ± 0.2 s^−1enz^−1
L0, equilibrium constant T/R of unliganded enzyme ([15]; MWC global fit, enzyme parameter, peptide-independent): 15000
KTP/KRP ([15]; MWC global fit, peptide preference for relaxed state): 12.3
kr, rate constant for cleavage of RseA by substrate-bound R-state subunits ([15]; MWC global fit, same value for all enzymes and peptides): 3.3 s⁻¹
DegS molecules in active conformation ([15]; saturating peptide and saturating RseA substrate, MWC model): 83%
